Test results reported in patent US6762182B1, “Converting cox inhibition compounds that are not COX-2 selective inhibitors to derivatives that are COX-2 selective inhibitors” (Vanderbilt University, priority 1999, dated 2004).
Like-named read-outs stand apart in the source and are kept apart here.

Tests used:
COX-2 [1] = molecular target: T1, COX-2 (Homo sapiens, UniProt P35354); test: TLC assay, inhibition of purified human COX-2; format: biochemical; settings: for IC50: human COX-2 (66 nM)
T1 sequence (P35354 18-604): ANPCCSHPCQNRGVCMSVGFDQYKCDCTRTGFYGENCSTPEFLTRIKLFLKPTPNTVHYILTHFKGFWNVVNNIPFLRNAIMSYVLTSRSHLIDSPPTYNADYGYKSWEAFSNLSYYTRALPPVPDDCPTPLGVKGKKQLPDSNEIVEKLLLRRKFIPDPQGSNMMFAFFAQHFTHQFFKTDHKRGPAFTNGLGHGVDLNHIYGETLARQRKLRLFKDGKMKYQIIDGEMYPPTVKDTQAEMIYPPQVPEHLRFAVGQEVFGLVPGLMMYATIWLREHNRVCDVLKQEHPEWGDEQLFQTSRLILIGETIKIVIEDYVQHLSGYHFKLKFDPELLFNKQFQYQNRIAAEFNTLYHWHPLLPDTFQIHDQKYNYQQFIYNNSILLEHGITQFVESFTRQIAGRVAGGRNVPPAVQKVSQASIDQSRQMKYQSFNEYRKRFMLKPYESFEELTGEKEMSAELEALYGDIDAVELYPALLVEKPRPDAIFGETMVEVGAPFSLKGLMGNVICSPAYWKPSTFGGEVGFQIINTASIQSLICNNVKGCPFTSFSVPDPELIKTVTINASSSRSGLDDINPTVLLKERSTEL
Description: (§1) Ovine COX-1 was used because it is very easy to isolate and to purify the enzyme from sheep seminal vesicles, whereas human COX-1 is normally obtained by over expression in an insect cell system and is very difficult to handle and especially to purify. COX-1 from sheep is >90% similar to COX-1 from humans. […] COX-1 was purified from ram seminal vesicles obtained from Oxford Biomedical Research, Inc. (Oxford, Mich.). […] The enzymes obtained after purification were apo (i.e., they lacked the hemprosthetic group).
(§2) Reactions were terminated by solvent extraction in Et2O/CH3OH/1 M citrate, pH 4.0 (30:4:1). The phases were separated by centrifugation at 2000 g-force for 2 minutes and the organic phase was spotted on a TLC plate (obtained from J. T. Baker, Phillipsburg, N.J.). The plate was developed in EtOAc/CH2Cl2/glacial AcOH (75:25:1) at 4° C. Radiolabeled prostanoid products were quantitatively determined with a radioactivity scanner (obtained from Bioscan, Inc., Washington, D.C.).

ovine COX-1 = molecular target: T2, ovine COX-1 (Ovis aries, UniProt P05979); test: TLC assay, inhibition of purified ovine COX-1
T2 sequence (P05979 25-600): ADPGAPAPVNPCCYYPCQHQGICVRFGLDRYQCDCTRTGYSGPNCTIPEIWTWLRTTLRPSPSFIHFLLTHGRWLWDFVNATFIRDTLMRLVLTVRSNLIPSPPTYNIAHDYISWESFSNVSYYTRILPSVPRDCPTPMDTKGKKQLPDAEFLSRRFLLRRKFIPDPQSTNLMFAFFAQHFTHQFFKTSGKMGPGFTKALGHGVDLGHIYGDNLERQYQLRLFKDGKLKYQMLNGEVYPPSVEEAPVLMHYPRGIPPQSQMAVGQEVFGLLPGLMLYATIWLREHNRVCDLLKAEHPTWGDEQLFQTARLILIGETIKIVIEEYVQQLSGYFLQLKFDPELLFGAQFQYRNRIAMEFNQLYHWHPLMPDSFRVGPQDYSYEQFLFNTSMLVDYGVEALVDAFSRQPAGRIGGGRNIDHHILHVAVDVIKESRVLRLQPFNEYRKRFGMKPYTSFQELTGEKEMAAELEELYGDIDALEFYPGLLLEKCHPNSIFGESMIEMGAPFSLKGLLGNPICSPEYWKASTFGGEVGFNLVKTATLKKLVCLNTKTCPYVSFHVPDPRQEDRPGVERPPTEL
Description: as §1, §2

[2] = tested on: carrageenan-induced rat foot pad edema; test: Rat foot pad edema model (carrageenan); format: in vivo; settings: for 3 hour edema: gavage 1 hour post carrageenan, 6 rats
Protocol: Rats were injected with carrageenan, which triggers a rapid edema (swelling) within 3 hours that can be quantitatively measured by volume displacement.
In these experiments, the carrageenan that was injected was in 0.1 mL of aqueous saline so that 0.1 mL volume increase was due to the injection alone. […] More specifically, male Sprague-Dawley rats (150 g) received a subplantar injection of carrageenan (0.1 mL of a 1% suspension of carrageenan in sterile aqueous saline) into the right hind footpad while mildly anesthetized with methoxyflurane. […] The ipsilateral footpad volume (mL) was measured with a water displacement plethysmometer at time=3 hours post-injection and compared to the time=0 pre-injection paw volume for edema calculations.

COX-1 = COX-1 (Homo sapiens, UniProt P23219); settings: background; cited from earlier work
COX-2 [3] = molecular target: T1, COX-2; settings: background; cited from earlier work
[4] = read-out: IC50 (μM) COX-1, Table 1 ester derivatives, ovine COX-1 (44 nM), 20 min at rt, then 14C-AA (50 μM) 37° C. 30 sec
[5] = Table 2 amide derivatives, 20 min, then 1-14C-AA (50 μM) 37° C. 30 sec
[6] = read-out: IC50 (μM) COX-1, Table 2 amide derivatives, ovine COX-1 (44 nM), 20 min, then 1-14C-AA (50 μM) 37° C. 30 sec

Sequence of COX-1 (P23219 24-599): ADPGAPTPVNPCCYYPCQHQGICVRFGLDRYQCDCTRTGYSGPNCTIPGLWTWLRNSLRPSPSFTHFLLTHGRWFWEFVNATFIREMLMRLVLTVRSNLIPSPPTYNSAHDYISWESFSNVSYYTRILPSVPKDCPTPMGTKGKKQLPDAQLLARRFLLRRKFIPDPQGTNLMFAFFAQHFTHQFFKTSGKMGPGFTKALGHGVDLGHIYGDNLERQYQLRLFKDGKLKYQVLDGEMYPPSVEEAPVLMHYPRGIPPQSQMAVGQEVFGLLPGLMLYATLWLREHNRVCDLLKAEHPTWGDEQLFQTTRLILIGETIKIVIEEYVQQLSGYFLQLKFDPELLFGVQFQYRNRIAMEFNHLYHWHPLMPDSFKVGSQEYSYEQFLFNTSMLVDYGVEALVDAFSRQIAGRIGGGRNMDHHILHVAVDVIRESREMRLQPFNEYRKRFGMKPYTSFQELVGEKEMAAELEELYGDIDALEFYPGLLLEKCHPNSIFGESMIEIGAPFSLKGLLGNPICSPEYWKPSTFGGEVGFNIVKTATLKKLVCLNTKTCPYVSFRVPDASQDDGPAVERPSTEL

Cc1nc(-c2ccccc2)c(-c2ccc(S(N)(=O)=O)cc2)o1 [2-methyl-4-phenyl-5-sulfonamidophenyl oxazolo, reference compound]
IC50 (COX-2 [1]; Table 1 ester derivatives, 20 min at rt, then 14C-AA (50 μM) 37° C. 30 sec): 0.06 µM
IC50 (ovine COX-1): > 66 µM
IC50 (ovine COX-1; [4]): > 66 µM

COC(=O)Cc1c(C)n(C(=O)c2ccc(Cl)cc2)c2ccc(OC)cc12 [Compound 2, Indomethacin methyl ester]
IC50 (ovine COX-1): ~33 µM
IC50 (ovine COX-1; [4]): 33 µM

COc1ccc2c(c1)c(CC(=O)OC(C)C)c(C)n2C(=O)c1ccc(Cl)cc1 [Compound 5, Indomethacin isopropyl ester]
IC50 (ovine COX-1): 37 µM

CCCCCCCOC(=O)Cc1c(C)n(C(=O)c2ccc(Cl)cc2)c2ccc(OC)cc12 [Compound 11, Indomethacin heptyl ester]
IC50 (ovine COX-1): > 66 µM

CCCCC#CCOC(=O)Cc1c(C)n(C(=O)c2ccc(Cl)cc2)c2ccc(OC)cc12 [Compound 14, Indomethacin hept-2-ynyl ester]
IC50 (ovine COX-1): > 66 µM

CCC#CCC(C)OC(=O)Cc1c(C)n(C(=O)c2ccc(Cl)cc2)c2ccc(OC)cc12 (stereo not drawn) [Compound 15, Indomethacin 2-(hept-4-ynyl) ester]
IC50 (ovine COX-1): > 66 µM

CCCCCCCCOC(=O)Cc1c(C)n(C(=O)c2ccc(Cl)cc2)c2ccc(OC)cc12 [Compound 16, Indomethacin octyl ester]
IC50 (ovine COX-1): > 66 µM

COc1ccc2c(c1)c(CC(=O)Oc1ccc3ccccc3c1)c(C)n2C(=O)c1ccc(Cl)cc1 [Compound 25, Indomethacin β-naphthyl ester]
IC50 (ovine COX-1): > 66 µM

COc1ccc2c(c1)c(CC(=O)Nc1ccc(NC(C)=O)cc1)c(C)n2C(=O)c1ccc(Cl)cc1 [Compound 41, Indomethacin-N-(4-acetamidophenyl) amide]
3 hour edema ([2]; Concentration 0.2 mg/mL): 0.55 mL
3 hour edema ([2]; Concentration 0.5 mg/mL): 0.47 mL
3 hour edema ([2]; Concentration 1.0 mg/mL): 0.39 mL
3 hour edema ([2]; Concentration 2.0 mg/mL): 0.38 mL
reduction in inflammation ([2]; rat, 2 mg/kg orally 1 hour after carrageenan, corrected for 0.1 mL injection volume): 80-85%

COc1ccc2c(c1)c(CC(=O)Nc1cc(OC)c(OC)c(OC)c1)c(C)n2C(=O)c1ccc(Cl)cc1 [Compound 46, Indomethacin-N-(3,4,5-trimethoxyphenyl) amide]
Selectivity, ratio of IC50 (COX-1):IC50 (COX-2) (COX-2 [1]; Table 2 amide derivatives): >66
IC50 (COX-2 [1]; [5]): > 1 µM
IC50 (ovine COX-1; [6]): > 66 µM

COc1ccc2c(c1)c(CC(=O)Nc1ccc(Cl)nc1)c(C)n2C(=O)c1ccc(Cl)cc1 [Compound 48, Indomethacin-N-5-((2-chloro)pyridyl) amide]
Selectivity, ratio of IC50 (COX-1):IC50 (COX-2) (COX-2 [1]; Table 2 amide derivatives): >1404
IC50 (COX-2 [1]; [5]): 0.047 µM
IC50 (ovine COX-1; [6]): > 66 µM

COC(=O)[C@H](C)NC(=O)Cc1c(C)n(C(=O)c2ccc(Cl)cc2)c2ccc(OC)cc12 [Compound 52, Indomethacin-N-2-(2-L-methoxycarbonylethyl) amide]
IC50 (COX-2 [1]; [5]): 0.4 µM

COc1ccc2c(c1)c(CC(=O)Nc1nc(C)cs1)c(C)n2C(=O)c1ccc(Cl)cc1 [Compound 57, Indomethacin-N-2-(4-methylthiazolyl) amide]
IC50 (ovine COX-1; [6]): > 66 µM

COc1ccc2c(c1)c(CC(=O)O)c(C)n2C(=O)c1ccc(Cl)cc1 [Indomethacin, reference compound]
reduction in inflammation, in words ([2]; rat, 2 mg/kg orally): comparable reduction in inflammation

CC1=C(CC(=O)O)c2cc(F)ccc2/C1=C\c1ccc(S(C)(=O)=O)cc1 [sulindac sulfone]
COX-1 inhibition, in words (COX-1): does not inhibit
COX-2 inhibition, in words (COX-2 [3]): does not inhibit
